Data reported in US20110195030A1, “NANOPARTICLE COMPOSITIONS COMPRISING LIQUID OIL CORES” (The University of North Carolina at Chapel Hill, priority 2008, published 2011).
In brackets after ≈: the same amount, converted by molar mass.

Experiments:
[1] = In-vitro release of paclitaxel by dialysis method; type: physicochemical; settings: 37° C., PBS with 0.1% Tween 80
Method: PX release studies (n=4) were completed at 37° C. by the dialysis method using PBS with 0.1% Tween 80 as release medium. Before release studies, the solubility of PX in release medium was measured. Briefly, extra amounts of paclitaxel were added into 2 mL of release medium until saturation was attained. After centrifuge, the concentration of PX in the supernatant was determined by HPLC as described above. For release studies, one milliliter (1 mL) of PX G78 NPs was purified with a Microcon Y-100 and re-suspended into 1 mL D.I. water. The concentration of PX in re-suspended PX G78 NPs was measured by HPLC as described above. Eight hundred microliters of purified PX G78 NPs, PX BTM NPs and reconstituted lyo BTM NPs were placed into a regenerated cellulose dialysis membrane (MWCO 8000 Da) submerged in 40 mL PBS with 0.1% Tween 80, respectively, and then shaken in a water bath at a speed of 150 rpm at 37° C. Free PX also was used as a control. At predetermined times, 200 μL aliquots were taken from outside of the dialysis membrane, and replaced with 200 μL fresh media. PX was measured by HPLC as described above. Mass balance was confirmed by measuring PX concentration inside the dialysis membranes after 72 h. In addition, the particle sizes of PX NPs inside the dialysis membranes were measured when release studies were terminated (at 72 h).

Solubility of paclitaxel = type: physicochemical; settings: PBS with 0.1% Tween 80 (release medium), aqueous with cosolvent or surfactant or cyclodextrin, thermodynamic from solid; PBS with 0.1% Tween 80, room temperature, mean ± SD, n = 3
[2] = reported in literature; cited from earlier work

- time to complete release [1]: ≤ 4 h
- solubility (Solubility of paclitaxel): 10.8 ± 0.3 µg/mL (≈ 12.6 µM)
Compound: CC(=O)O[C@H]1C(=O)[C@@]2(C)[C@H]([C@H](OC(=O)c3ccccc3)[C@]3(O)C[C@H](OC(=O)[C@H](O)[C@@H](NC(=O)c4ccccc4)c4ccccc4)C(C)=C1C3(C)C)[C@]1(OC(C)=O)CO[C@@H]1C[C@@H]2O [Paclitaxel]
- aqueous solubility [2]: 0.7 to 30 µg/mL
